The record followed here is patent publication US20170283396A1, “DIAMINOHETEROARYL SUBSTITUTED INDAZOLES” (Bayer Pharma Aktiengesellschaft, priority 2013, published 2017).

For one experiment, the system named is HeLa cell line. The experiment is described as follows: Proliferation assay (HeLa cell line). Type of experiment: cell-based. The following applies: Homo sapiens, 96 h, read-out: Biological Assay 2: Proliferation assay (HeLa cell line) median IC50. How it is done: Cultivated tumor cells (cells were ordered from ATCC, except HeLa-MaTu and HeLa-MaTu-ADR, which were ordered from EPO-GmbH, Berlin) were plated at a density of 1000 to 5000 cells/well, depending on the growth rate of the respective cell line, in a 96-well multititer plate in 200 μL of their respective growth medium supplemented 10% fetal calf serum. After 24 hours, the cells of one plate (zero-point plate) were stained with crystal violet (see below), while the medium of the other plates was replaced by fresh culture medium (200 μL), to which the test substances were added in various concentrations (0 μM, as well as in the range of 0.001-10 μM; the final concentration of the solvent dimethyl sulfoxide was 0.5%). The cells were incubated for 4 days in the presence of test substances. Cell proliferation was determined by staining the cells with crystal violet: the cells were fixed by adding 20 μl/measuring point of an 11% glutaric aldehyde solution for 15 minutes at room temperature. After three washing cycles of the fixed cells with water, the plates were dried at room temperature. The cells were stained by adding 100 μl/measuring point of a 0.1% crystal violet solution (pH 3.0). After three washing cycles of the stained cells with water, the plates were dried at room temperature. The dye was dissolved by adding 100 μl/measuring point of a 10% acetic acid solution. Absorption was determined by photometry at a wavelength of 595 nm. The change of cell number, in percent, was calculated by normalization of the measured values to the absorption values of the zero-point plate (=0%) and the absorption of the untreated (0 μm) cells (=100%). The IC50 values were determined by means of a 4 parameter fit using the company's own software.

The target in experiment [1] is T1, catalytic domain of human Bub1 (amino acids 704-1085) (Homo sapiens, UniProt O43683).
T1 construct: catalytic domain of human Bub1 (amino acids 704-1085); His6 (N); made in house; host or cells: Hi5 insect cells
T1 sequence (O43683 704-1085): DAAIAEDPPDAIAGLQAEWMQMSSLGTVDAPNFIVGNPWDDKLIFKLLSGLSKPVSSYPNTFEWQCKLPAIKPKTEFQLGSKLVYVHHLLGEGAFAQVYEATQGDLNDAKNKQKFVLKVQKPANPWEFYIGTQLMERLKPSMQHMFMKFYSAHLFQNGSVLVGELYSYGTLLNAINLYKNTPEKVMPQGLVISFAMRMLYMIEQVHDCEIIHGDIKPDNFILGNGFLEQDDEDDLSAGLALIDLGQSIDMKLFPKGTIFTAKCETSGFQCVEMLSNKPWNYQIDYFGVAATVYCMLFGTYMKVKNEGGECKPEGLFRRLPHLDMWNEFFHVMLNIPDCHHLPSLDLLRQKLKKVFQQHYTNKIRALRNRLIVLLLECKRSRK
Kind of experiment: Bub1 kinase assay (TR-FRET). Type of experiment: biochemical. How it is done: To this end, 100-fold concentrated compound solutions (in DMSO) were previously prepared by serial dilution (1:3.4) of 2 mM stocks in a clear low volume 384-well source microtiter plate (Greiner Bio-One, Frickenhausen, Germany), from which 50 nl of compounds were transferred into a black low volume test microtiter plate from the same supplier. […] The resulting mixture (5 μL final volume) was incubated at […] during 60 min., and the reaction was stopped by the addition of 5 μL of an aqueous EDTA-solution (50 mM EDTA, in 100 mM HEPES pH 7.5 and 0.2% (w/v) bovine serum albumin) which also contained the TR-FRET detection reagents (0.2 μM streptavidin-XL665 [Cisbio Bioassays, Codolet, France] and 1 nM anti-phosho-Serine antibody [Merck Millipore, cat. #35-001] and 0.4 nM LANCE EU-W1024 labeled anti-mouse IgG antibody [Perkin-Elmer, product no. AD0077, alternatively a Terbium-cryptate-labeled anti-mouse IgG antibody from Cisbio Bioassays can be used]). The stopped reaction mixture was further incubated 1 h at 22° C. in order to allow the formation of complexes between peptides and detection reagents. Subsequently, the amount of product was evaluated by measurement of the resonance energy transfer from the Eu-chelate-antibody complex recognizing the Phosphoserine residue to the streptavidin-XL665 bound to the biotin moiety of the peptide. […] IC50 values were calculated by fitting the normalized inhibition data to a 4-parameter logistic equation (Minimum, Maximum, IC50, Hill; Y=Max+(Min−Max)/(1+(X/IC50)Hill)).
For orientation: Time-resolved FRET reads energy transfer from a long-lived donor to a nearby acceptor.

Setting [2] is: TR-FRET, 10 μM ATP, 1 μM peptide substrate, read-out: Biological Assay 1: Bub1 kinase assay median IC50.
Where [3] appears, read: cervical cancer, 4 days incubation, crystal violet staining.

Where two headings read alike, the source gives them in different places. A value given as a limit tells only on which side of the number the result lay.

On to `CCOc1cc(F)c(Cn2nc(-c3nc(N)c(OC)c(Nc4ccncc4)n3)c3ccccc32)c(F)c1` [Example 2-3-2, 2-[1-(4-ethoxy-2,6-difluorobenzyl)-1H-indazol-3-yl]-5-methoxy-N-(pyridin-4-yl)pyrimidine-4,6-diamine], for which the values for the IC50 (in the experiment with HeLa cell line; in experiment [1] (setting [2])) were 3800 nM and 8.3 nM, respectively.
With `CCOc1cc(F)c(Cn2nc(-c3nc(N)c(N4CCOCC4)c(Nc4ccncc4)n3)c3ccccc32)c(F)c1` [Example 2-3-3, 2-[1-(4-ethoxy-2,6-difluorobenzyl)-1H-indazol-3-yl]-5-(morpholin-4-yl)-N-(pyridin-4-yl)pyrimidine-4,6-diamine], the IC50 turned out to be 3600 nM in the experiment on HeLa cell line and 4.3 nM in experiment [1] (setting [2]).
For `CCNC(=O)Nc1nc(-c2nn(Cc3c(F)cc(OCC)cc3F)c3ccccc23)nc(Nc2ccncc2)c1N1CCOCC1` [Example 2-3-4, 1-{2-[1-(4-ethoxy-2,6-difluorobenzyl)-1H-indazol-3-yl]-5-(morpholin-4-yl)-6-(pyridin-4-ylamino)pyrimidin-4-yl}-3-ethylurea], the IC50 in the experiment on HeLa cell line (setting [3]) is ≥ 10000 nM; in experiment [1], 130 nM.
On to `CCOc1cc(F)c(Cn2nc(-c3nc(N)cc(Nc4ccncn4)n3)c3ccccc32)c(F)c1` [Example 2-3-5, 2-[1-(4-ethoxy-2,6-difluorobenzyl)-1H-indazol-3-yl]-N-(pyrimidin-4-yl)pyrimidine-4,6-diamine], for which the IC50 in the experiment with HeLa cell line worked out at 7800 nM; in experiment [1] (setting [2]), 5.3 nM.
Regarding `CCOc1cc(F)c(Cn2nc(-c3nc(N)c(N4CCOCC4)c(Nc4ccncn4)n3)c3ccccc32)c(F)c1` [Example 2-3-7, 2-[1-(4-ethoxy-2,6-difluorobenzyl)-1H-indazol-3-yl]-5-(morpholin-4-yl)-N-(pyrimidin-4-yl)pyrimidine-4,6-diamine], the IC50 in the experiment on HeLa cell line is 9000 nM; in experiment [1] (setting [2]), 6.6 nM.
As for `CCNC(=O)Nc1nc(-c2nn(Cc3c(F)cc(OCC)cc3F)c3ccccc23)nc(Nc2ccncn2)c1N1CCOCC1` [Example 2-3-8, 1-{2-[1-(4-ethoxy-2,6-difluorobenzyl)-1H-indazol-3-yl]-5-(morpholin-4-yl)-6-(pyrimidin-4-ylamino)pyrimidin-4-yl}-3-ethylurea], the figures for the IC50 (in the experiment on HeLa cell line (setting [3]); in experiment [1]) were > 10000 nM and 280 nM, respectively.
For the compound `CCOc1cc(F)c(Cn2nc(-c3nc(N)nc(Nc4ccncc4)n3)c3ccccc32)c(F)c1` [Example 2-3-9, 6-[1-(4-ethoxy-2,6-difluorobenzyl)-1H-indazol-3-yl]-N-(pyridin-4-yl)-1,3,5-triazine-2,4-diamine], the IC50 in the experiment on HeLa cell line came to 2900 nM; in experiment [1] (setting [2]) it was 5.8 nM.
For `CCOc1cc(F)c(Cn2nc(-c3nc(N)c(OCCOC)c(Nc4ccncc4)n3)c3ccccc32)c(F)c1` [Example 2-3-10, 2-[1-(4-ethoxy-2,6-difluorobenzyl)-1H-indazol-3-yl]-5-(2-methoxyethoxy)-N-(pyridin-4-yl)pyrimidine-4,6-diamine], in that order: 3900 nM and 7.2 nM.
Taken in the same sequence, the figures for `CCOc1cc(F)c(Cn2nc(-c3nc(N)c(OCCOC)c(Nc4ccncn4)n3)c3ccccc32)c(F)c1` [Example 2-3-11, 2-[1-(4-ethoxy-2,6-difluorobenzyl)-1H-indazol-3-yl]-5-(2-methoxyethoxy)-N-(pyrimidin-4-yl)pyrimidine-4,6-diamine] were 3700 nM and 5.2 nM.
Take `CCOc1cc(F)c(Cn2nc(-c3nc(N)c(NC(=O)COC)c(Nc4ccncc4)n3)c3ccccc32)c(F)c1` [Example 2-3-13, N-{4-amino-2-[1-(4-ethoxy-2,6-difluorobenzyl)-1H-indazol-3-yl]-6-(pyridin-4-ylamino)pyrimidin-5-yl}-2-methoxyacetamide]: the IC50 in the experiment on HeLa cell line came out at 7800 nM; in experiment [1] (setting [2]), 11 nM.
For `CCOc1cc(F)c(Cn2nc(-c3nc(N)c(NC(=O)COC)c(Nc4ccncn4)n3)c3ccccc32)c(F)c1` [Example 2-3-14, N-{4-amino-2-[1-(4-ethoxy-2,6-difluorobenzyl)-1H-indazol-3-yl]-6-(pyrimidin-4-ylamino)pyrimidin-5-yl}-2-methoxyacetamide], in that order: ≥ 10000 nM and 7.9 nM.
Regarding `CCOc1cc(F)c(Cn2nc(-c3nc(N)c(NS(=O)(=O)CC)c(Nc4ccncc4)n3)c3ccccc32)c(F)c1` [Example 2-3-15, N-{4-amino-2-[1-(4-ethoxy-2,6-difluorobenzyl)-1H-indazol-3-yl]-6-(pyridin-4-ylamino)pyrimidin-5-yl}ethanesulfonamide], the IC50 is ≥ 10000 nM in the experiment on HeLa cell line and 5.8 nM in experiment [1] (setting [2]).
For `CCOc1cc(F)c(Cn2nc(-c3nc(N)c(NS(=O)(=O)C(F)(F)F)c(Nc4ccncc4)n3)c3ccccc32)c(F)c1` [Example 2-3-16, N-{4-amino-2-[1-(4-ethoxy-2,6-difluorobenzyl)-1H-indazol-3-yl]-6-(pyridin-4-ylamino)pyrimidin-5-yl}-1,1,1-trifluoromethanesulfonamide], in that order: ≥ 10000 nM and 8.7 nM.
For `CCOc1cc(F)c(Cn2nc(-c3nc4c(c(Nc5ccncc5)n3)OCC(=O)N4)c3ccccc32)c(F)c1` [Example 2-3-17, 2-[1-(4-ethoxy-2,6-difluorobenzyl)-1H-indazol-3-yl]-4-(pyridin-4-ylamino)-6H-pyrimido[5,4-b][1,4]oxazin-7(8H)-one], in that order: 1200 nM and 8 nM.
Consider `CCOc1cc(F)c(Cn2nc(-c3nc4c(c(Nc5ccncn5)n3)OCC(=O)N4)c3ccccc32)c(F)c1` [Example 2-3-18, 2-[1-(4-ethoxy-2,6-difluorobenzyl)-1H-indazol-3-yl]-4-(pyrimidin-4-ylamino)-6H-pyrimido[5,4-b][1,4]oxazin-7(8H)-one], for which the IC50 with HeLa cell line was ≥ 10000 nM; in experiment [1] (setting [2]), 19 nM.
With `CCOc1cc(F)c(Cn2nc(-c3nc(Nc4ccncc4)c(N4CCOCC4)c(Nc4ccncc4)n3)c3ccccc32)c(F)c1` [Example 2-4-3, 2-[1-(4-ethoxy-2,6-difluorobenzyl)-1H-indazol-3-yl]-5-(morpholin-4-yl)-N,N′-di(pyridin-4-yl)pyrimidine-4,6-diamine], the values for the IC50 (with HeLa cell line (setting [3]); in experiment [1]) were 3400 nM and 640 nM, respectively.
On to `CCOc1cc(F)c(Cn2nc(-c3nc(Nc4ccncc4)c(NC(=O)COC)c(Nc4ccncc4)n3)c3ccccc32)c(F)c1` [Example 2-4-8, N-{2-[1-(4-ethoxy-2,6-difluorobenzyl)-1H-indazol-3-yl]-4,6-bis(pyridin-4-ylamino)pyrimidin-5-yl}-2-methoxyacetamide], for which the IC50 with HeLa cell line was determined as 2500 nM; in experiment [1] (setting [2]) it was 220 nM.
With `CCOc1cc(F)c(Cn2nc(-c3nc(Nc4ccncn4)c(NC(=O)COC)c(Nc4ccncn4)n3)c3ccccc32)c(F)c1` [Example 2-4-9, N-{2-[1-(4-ethoxy-2,6-difluorobenzyl)-1H-indazol-3-yl]-4,6-bis(pyrimidin-4-ylamino)pyrimidin-5-yl}-2-methoxyacetamide], the IC50 in the experiment with HeLa cell line is ≥ 10000 nM; in experiment [1] (setting [2]) it was 22 nM.
Regarding `CCOc1cc(F)c(Cn2nc(-c3nc(Nc4ccncc4)c(NS(=O)(=O)CC)c(Nc4ccncc4)n3)c3ccccc32)c(F)c1` [Example 2-4-10, N-{2-[1-(4-ethoxy-2,6-difluorobenzyl)-1H-indazol-3-yl]-4,6-bis(pyridin-4-ylamino)pyrimidin-5-yl}ethanesulfonamide], the IC50 in the experiment with HeLa cell line is ≥ 10000 nM; in experiment [1] (setting [2]), 710 nM.
As to `CCOc1cc(F)c(Cn2nc(-c3nc(N)c(OCCO)c(Nc4ccncc4)n3)c3ccccc32)c(F)c1` [Example 2-5-1, 2-({4-amino-2-[1-(4-ethoxy-2,6-difluorobenzyl)-1H-indazol-3-yl]-6-(pyridin-4-ylamino)pyrimidin-5-yl}oxy)ethanol], the figures for the IC50 (in the experiment on HeLa cell line; in experiment [1] (setting [2])) were 3500 nM and 4.1 nM, respectively.
